According to patent EP0897920A1, “NOVEL HETEROCYCLIC COMPOUNDS HAVING PLATELET AGGREGATION INHIBITORY EFFECTS” (MEIJI SEIKA KABUSHIKI KAISHA, priority 1996, dated 1997):
Counter-ions that a name gives are not always drawn. Like-named read-outs stand apart in the source and are kept apart here.

Legend:
[1] = tested on: human PRP (platelet rich plasma); experiment: Inhibitory activity against platelet aggregation (ADP-induced, human PRP); format: cell-based; settings: aggregation inducer ADP 5 µM, preincubated 2 min
Method: The inhibitory activity of the compound according to the present invention against platelet aggregation was examined with human PRP (platelet rich plasma).
Nine volumes of a blood sample was taken out of the vein of a normal human being with a syringe in which one volume of a 3.8% sodium citrate solution was charged. The blood sample was centrifuged at 170 x g at room temperature for 10 min. The supernatant thus obtained was isolated as PRP. The residual blood sample that PRP had been taken out was centrifuged at 2,700 x g for 15 min. The supernatant was then taken as platelet poor plasma (PPP).
A platelet aggregation test was carried out with an aggligometer (PAM-8C, manufactured by MEBANICKS Co. Ltd.). Compounds under test were dissolved in physiological saline, 0.1 N hydrochloric acid-physiological saline, or 1 N aqueous sodium hydroxide solution-physiological saline. The compound under test and PRP were preincubated for 2 min. An aggregation inducer ADP (CHRONO-PAR REAGENTS 384 ADP, CHRONO-LOG Corp.) was used after dilution with physiological saline to a final concentration of 5 µM.
The anti-platelet aggregation activity was determined as an inhibition rate to platelet aggregation effect of ADP in the absence of a compound under tent as follows. Anti-platelet aggregation activity (%) = [1 - (aggregation rate by ADP in the presence of test compound/aggregation rate by ADP in the absence of test compound)] x 100 [formula]

[2] = target: T1, human platelet GPIIb/IIIa (Homo sapiens, UniProt P05106+P08514); experiment: Inhibitory activity against binding between platelet GPIIb/IIIa and fibrinogen (solid phase receptor binding)
T1 construct: the adsorbed GPIIb/IIIa was eluted with buffer A containing 2 mM GRGDSPK peptide; from tissue
T1 sequence (P08514 32-887 limits assumed): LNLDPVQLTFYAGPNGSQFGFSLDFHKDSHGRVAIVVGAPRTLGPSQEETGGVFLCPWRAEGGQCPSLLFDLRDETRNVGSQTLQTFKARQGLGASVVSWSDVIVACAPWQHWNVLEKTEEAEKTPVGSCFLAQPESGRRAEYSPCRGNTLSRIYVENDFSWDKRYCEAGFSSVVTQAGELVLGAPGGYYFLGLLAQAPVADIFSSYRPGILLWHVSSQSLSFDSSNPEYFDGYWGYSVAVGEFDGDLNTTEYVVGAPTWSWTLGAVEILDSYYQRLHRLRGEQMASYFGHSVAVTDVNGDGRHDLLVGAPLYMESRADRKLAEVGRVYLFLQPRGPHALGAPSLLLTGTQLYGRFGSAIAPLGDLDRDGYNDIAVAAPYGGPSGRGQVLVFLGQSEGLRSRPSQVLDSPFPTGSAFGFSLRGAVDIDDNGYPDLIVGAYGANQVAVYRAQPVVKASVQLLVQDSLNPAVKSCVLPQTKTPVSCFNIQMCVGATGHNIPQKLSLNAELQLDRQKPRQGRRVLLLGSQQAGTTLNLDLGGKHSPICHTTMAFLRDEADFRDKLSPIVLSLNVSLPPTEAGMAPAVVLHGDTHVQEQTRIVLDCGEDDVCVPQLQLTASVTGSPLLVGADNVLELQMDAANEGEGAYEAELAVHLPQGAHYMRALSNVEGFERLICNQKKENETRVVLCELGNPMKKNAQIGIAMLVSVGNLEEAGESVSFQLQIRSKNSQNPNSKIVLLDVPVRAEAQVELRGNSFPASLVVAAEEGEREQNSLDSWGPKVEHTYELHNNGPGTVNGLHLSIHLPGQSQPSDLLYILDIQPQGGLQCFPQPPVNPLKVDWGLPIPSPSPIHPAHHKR
T1 sequence (P08514 891-1039 partner limits assumed): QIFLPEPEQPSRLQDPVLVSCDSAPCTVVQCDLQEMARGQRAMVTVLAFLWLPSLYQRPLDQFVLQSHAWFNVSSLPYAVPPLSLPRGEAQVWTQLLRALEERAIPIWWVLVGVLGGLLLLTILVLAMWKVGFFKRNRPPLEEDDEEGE
T1 sequence (P05106 27-788): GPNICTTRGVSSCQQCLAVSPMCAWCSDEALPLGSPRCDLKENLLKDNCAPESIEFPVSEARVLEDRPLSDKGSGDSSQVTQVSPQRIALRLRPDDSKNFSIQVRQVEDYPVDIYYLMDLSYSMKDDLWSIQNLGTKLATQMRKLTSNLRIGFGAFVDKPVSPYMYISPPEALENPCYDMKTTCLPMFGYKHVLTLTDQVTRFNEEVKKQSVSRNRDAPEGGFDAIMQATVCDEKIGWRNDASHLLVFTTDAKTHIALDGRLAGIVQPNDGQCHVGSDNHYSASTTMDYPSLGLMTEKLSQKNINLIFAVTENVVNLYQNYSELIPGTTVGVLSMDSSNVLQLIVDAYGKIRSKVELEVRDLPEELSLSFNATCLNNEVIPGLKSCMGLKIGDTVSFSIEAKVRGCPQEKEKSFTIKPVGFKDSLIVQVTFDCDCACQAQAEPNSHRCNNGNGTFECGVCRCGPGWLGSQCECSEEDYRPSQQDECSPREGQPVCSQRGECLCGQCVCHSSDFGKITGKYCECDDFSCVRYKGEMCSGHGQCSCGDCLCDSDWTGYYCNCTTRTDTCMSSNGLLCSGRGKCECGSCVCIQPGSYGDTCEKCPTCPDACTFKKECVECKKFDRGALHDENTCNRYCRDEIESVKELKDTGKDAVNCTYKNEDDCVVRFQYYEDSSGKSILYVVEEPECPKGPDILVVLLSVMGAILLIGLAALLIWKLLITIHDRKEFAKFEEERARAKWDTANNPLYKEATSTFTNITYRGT
Excerpt: The inhibitory activity of the compounds of the present invention against binding between platelet GPIIb/IIIa and fibrinogen was examined by means of a human platelet GPIIb/IIIa solid phase receptor binding experiment system using a biotinylated human fibrinogen as a ligand.
At the outset, human platelet GPIIb/IIIa was purified according to a method established by Pytela, R et al. (Science, 231, 1559-1561 (1986)). Specifically, platelets collected from a normal human being was washed with TBS (0.15 M NaCl/50 mM Tris-HCl buffer (pH 7.5)) containing 0.2% (w/v) glucose. To the resultant pellet was added an equal amount of TBS containing 50 mM octylglucoside and 2 mM PMSF, followed by solubilization of membrane protein at 4°C for 20 min. The extract was centrifuged under conditions of 4°C, 3500 x g, and 20 min. To the supernatant were added 1 mM CaCl2 and 1 mM MgCl2. Thus, a sample for affinity chromatography was prepared. The solubilized protein solution was adsorbed on a GRGDSPK-Sepharose column which had been previously equilibrated with TBS containing 50 mM octylglucoside, 1 mM CaCl2, and 1 mM MgCl2 (buffer A). After washing with buffer A, the adsorbed GPIIb/IIIa was eluted with buffer A containing 2 mM GRGDSPK peptide.
The GRGDSPK-Sepharose was prepared by coupling of GRGDSPK peptide with CNBr-activated Sepharose 4B (manufactured by Pharmacia) according to the instruction manual of the manufacturer.
Next, a human platelet GPIIb/IIIa solid phase receptor binding test was carried out according to a method established by Mori et al. (Nippon Kessen Shiketsu Gakkaishi, 2(4), 323-329 (1991)).
Purified human platelet GPIIb/IIIa was adjusted to 2 µg/ml, and an 50 µl aliquot was adsorbed on each well of a 96 well microtiter plate at 4°C overnight. After washing with TBS containing 1 mM CaCl2 and 1 mM MgCl2, 100 µl of 1% bovine serum albumin was added to each of the wells, followed by blocking at 4°C overnight. The microtiter plate was then washed with TBS containing 0.01% Tween 20 (TBS-Tween 20), and 50 µl of biotinylated fibrinogen, which had been adjusted to 1 µg/ml, was added to each of the wells. Simultaneously, 50 µl of the test compound, which had been adjusted to appropriate concentrations, was added thereto, followed by a reaction at room temperature for 4 hr. After washing with TBS-Tween 20, 50 µl of peroxidase-labelled avidin, which had been diluted 4000 times with TBS, was added to each of the wells, followed by a reaction for 20 min. After washing with TBS-Tween 20, 50 µl of a solution of 1 mg/ml ABTS (2,2'-azino-bis(3-ethylbenzthiazoline-6-sulfonic acid) dissolved in a peroxidase substrate buffer, which had been diluted 10 times, was added to each of the wells, and a reaction was allowed to proceed for 5 min. Next, 50 µl of a 0.1 M citric acid buffer (pH 4.3) containing 0.05% NaN3 was added to each of the wells to terminate the reaction, and the absorbance was measured at 415 nm.
The binding inhibition was calculated by the following equation.
Binding inhibition (%) = [1 - (absorbance with test compound/absorbance without test compound)] x 100

human TXA2 synthetase = target: T2, human TXA2 synthetase (Homo sapiens, UniProt P24557); experiment: Inhibitory activity against thromboxane A2 (TXA2) synthetase; format: biochemical
T2 construct: purchased BIOMOL
T2 sequence (P24557 1-533): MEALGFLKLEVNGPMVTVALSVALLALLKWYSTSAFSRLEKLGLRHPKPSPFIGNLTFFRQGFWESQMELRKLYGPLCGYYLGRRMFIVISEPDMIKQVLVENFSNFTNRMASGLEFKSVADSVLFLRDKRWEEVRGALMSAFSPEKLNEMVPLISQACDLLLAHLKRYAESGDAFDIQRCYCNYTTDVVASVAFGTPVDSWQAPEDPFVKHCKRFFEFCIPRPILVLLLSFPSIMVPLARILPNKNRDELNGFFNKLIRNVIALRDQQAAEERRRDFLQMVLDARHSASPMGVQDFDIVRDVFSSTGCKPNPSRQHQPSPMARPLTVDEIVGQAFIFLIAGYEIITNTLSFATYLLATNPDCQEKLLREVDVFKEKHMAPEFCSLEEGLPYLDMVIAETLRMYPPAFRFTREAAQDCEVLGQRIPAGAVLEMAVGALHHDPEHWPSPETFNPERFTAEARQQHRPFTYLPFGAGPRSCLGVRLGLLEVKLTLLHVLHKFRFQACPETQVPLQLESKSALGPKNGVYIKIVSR
Method: The inhibitory activity of the compound of the present invention against TXA2 synthetase was assayed according to a method established by Ri et al. (Nihon Yakuri Gakkaishi, 106, 31 (1995)). A specimen solution (10 µl) was added to 100 µl of a 50 mM Tris-HCl buffer (containing 0.1 M NaCl, pH 7.5, 25°C) containing 10 µg of human TXA2 synthetase (BIOMOL), and incubation was then carried out at 25°C for 3 min. Next, 2 µl of 50 µg/ml PGH2 solution (Cayman Chemical) was added thereto to initiate an enzyme reaction, followed by the reaction at 25°C for 3 min. An aqueous ferrous chloride solution (25 mM, 10 µl) was added thereto to terminate the reaction. The reaction system was allowed to stand at room temperature for 15 min and then centrifuged under conditions of 4°C, 3000 x g, and 10 min. The supernatant was obtained as a sample for quantitative determination of TXB2. The amount of TXB2 was determined by means of Thromboxane B2 Enzyme Immunoassay Kit (Cayman Chemical). After a color reaction, the absorbance was measured at 415 nm with a microplate reader (MTP-32, manufactured by Corona Electric Co., Ltd.). The inhibition against TXA2 synthetase activity was calculated by the following equation, and 50% inhibition concentration was determined by regression straight line. Inhibition (%) = (1 - B/A) x 100 [formula] wherein • A represents the amount of TXB2 produced without the test compound; and • B represents the amount of TXB2 produced with the test compound.

[3] = purified human platelet GPIIb/IIIa, biotinylated human fibrinogen as ligand, read-out: IC50
[4] = human TXA2 synthetase, PGH2 substrate, 25°C, TXB2 determined by enzyme immunoassay, read-out: IC50

| Compound | IC50 ([1]; Platelet) [nM] | IC50 [2, 3] [nM] | IC50 (human TXA2 synthetase; [4]) [nM] | IC50 [2] [nM] | IC50 (human TXA2 synthetase) [nM] | IC50 ([2]; purified human platelet GPIIb/IIIa, biotinylated human fibrinogen as ligand) [nM] | IC50 (human TXA2 synthetase; human TXA2 synthetase, PGH2 substrate, 25°C, TXB2 determined by enzyme immunoassay) [nM] | IC50 [1] [nM] |
| --- | --- | --- | --- | --- | --- | --- | --- | --- |
| O=C(O)COc1ccc(C(=O)CNC(=O)c2cc3c(s2)CCNC3)cc1Cn1ccnc1 [Example 1, [2-(Imidazol-1-yl)methyl-4-[[[4,5,6,7-tetrahydrothieno[3,2-c]pyridin-2-yl]carbonylamino]acetyl]phenyl]oxyacetic acid trifluoroacetate (TFA)] | 4400 | 270 | 360 |  |  |  |  |  |
| O=C(O)COc1ccc(C(=O)CNC(=O)c2cc3c(s2)CCNC3)cc1COc1cccnc1 [Example 2, [2-(Pyridin-3-yl)oxymethyl-4-[[[4,5,6,7-tetrahydrothieno[3,2-c]pyridin-2-yl]carbonylamino]acetyl]phenyl]oxyacetic acid trifluoroacetate] | 9300 | 270 | > 10000 |  |  |  |  |  |
| O=C(O)COc1ccc(C(CNC(=O)c2cc3c(s2)CCNC3)Oc2cccnc2)cc1OCC(=O)O (stereo not drawn) [Example 3, [[4-[2-[[4,5,6,7-Tetrahydrothieno[3,2-c]pyridin-2-yl]carbonyl]amino-1-[(pyridin-3-yl)oxy]ethyl]-o-phenylene]dioxy]diacetic acid trifluoroacetate] | 360 | 1.4 | 550 |  |  |  |  |  |
| CN(CC(Oc1cccnc1)c1ccc(OCC(=O)O)c(OCC(=O)O)c1)C(=O)c1cc2c(s1)CCNC2 (stereo not drawn) [Example 4, [[4-[2-[[(4,5,6,7-Tetrahydrothieno[3,2-c]pyridin-2-yl)carbonyl]-N-methylamino]-1-(pyridin-3-yl)oxyethyl]-o-phenylene]dioxy]diacetic acid trifluoroacetate] | 140 | 4.8 | 870 |  |  |  |  |  |
| O=C(O)COc1ccc(C(CNC(=O)c2cc3c(s2)CCNC3)Oc2cccnc2)cc1 (stereo not drawn) [Example 5, [4-[2-[[(4,5,6,7-Tetrahydrothieno[3,2-c]pyridin-2-yl)carbonyl]amino]-1-(pyridin-3-yl)oxyethyl]phenyl]oxyacetic acid trifluoroacetate] | 280 | 10 | 160 |  |  |  |  |  |
| O=C(O)COc1ccc(C(=O)CN2CCN(C3CCNCC3)CC2=O)cc1Cn1ccnc1 [Example 6, [2-(1-Imidazolylmethyl)-4-[[4-(piperidin-4-yl)-2-oxopiperazin-1-yl]acetyl]phenyl]oxyacetic acid trifluoroacetate] | 71 |  |  | 12 | 570 |  |  |  |
| O=C(O)COc1ccc(C(=O)CN2C(=O)CN(C3CCNCC3)CC2=O)cc1Cn1ccnc1 [Example 8, [2-(1-Imidazolylmethyl)-4-[[4-(piperidin-4-yl)-2,6-dioxopiperazin-1-yl]acetyl]phenyl]oxyacetic acid trifluoroacetate] | 31 |  |  |  |  | 190 | 690 |  |
| [4-[[4-(Piperidin-4-yl)-2-oxopiperazin-1-yl]acetyl]-2-(3-pyridyloxymethyl)phenyl]oxyacetic acid trifluoroacetate [Example 7] |  | 23 | > 10000 |  |  |  |  | 93 |
